Measurements: article PMC5231396 (ACS chemical neuroscience, 2016)

Molecular target: T1, M1 muscarinic acetylcholine receptor (Mus musculus, UniProt P12657)
T1 sequence (P12657 1-460): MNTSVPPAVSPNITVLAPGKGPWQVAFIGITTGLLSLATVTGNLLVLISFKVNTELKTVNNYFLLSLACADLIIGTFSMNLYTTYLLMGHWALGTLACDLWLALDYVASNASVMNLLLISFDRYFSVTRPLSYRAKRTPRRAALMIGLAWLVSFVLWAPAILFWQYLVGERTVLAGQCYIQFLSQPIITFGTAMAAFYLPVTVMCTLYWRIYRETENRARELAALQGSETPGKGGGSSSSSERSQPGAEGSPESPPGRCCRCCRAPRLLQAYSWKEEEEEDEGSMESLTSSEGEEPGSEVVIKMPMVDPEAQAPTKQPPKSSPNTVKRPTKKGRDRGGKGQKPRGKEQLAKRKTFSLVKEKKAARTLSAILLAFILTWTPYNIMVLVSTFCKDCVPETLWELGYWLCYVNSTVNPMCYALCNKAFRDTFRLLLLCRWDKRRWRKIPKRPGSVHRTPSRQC
Experiment: previously published M1 PAM compared side-by-side with VU6004256
Format: cell-based

`Cn1cc(-c2ccc(CN3Cc4ncccc4C3=O)c(F)c2)cn1` [compound 1, VU0453595] gave an EC50 of 3.22 µM.
